“Also recorded” adds a separate entry of the source.
Tests used:
[1] = test system: human kinases (456 kinases); assay: KINOMEscan in vitro kinase profiling (primary screen binding interactions, % Ctrl, S-score); settings: for interaction with the 456 kinases tested: screened at 1 μM; for S-score, type S1 / S-score, type S10 / Number of hits/number of kinases, S10 / Number of hits/number of kinases, S1 / Kinase targets, S10 / Kinase targets, S1: tested at 1 μM; for S-score, type S1: S(1)=(number of kinases with % Ctrl<1)/(number of kinases tested); for S-score, type S10: S(10)=(number of kinases with % Ctrl <10)/(number of kinases tested); for Number of hits/number of kinases, S10: hits with % Ctrl <10; for Number of hits/number of kinases, S1: hits with % Ctrl<1; for Kinase targets, S10: kinases with % Ctrl <10; for Kinase targets, S1: kinases with % Ctrl<1
Experimental: An in vitro kinase profiling was conducted in order to evidence the absence of protein kinase inhibition by the compounds of the invention.
DiscoveRx (Ambit Biosciences) has developed a high-throughput system (KINOMEscan™) for screening of compounds against large numbers of human kinases (456 kinases).
The compounds of the invention were screened at the concentration of 1 μM, and results for primary screen binding interactions were reported as percent control (% Ctrl), where lower numbers indicate stronger hits. DMSO is used as a negative control (100% Ctrl) while a high affinity compound is used as a positive control (0% Ctrl). % Ctrl is calculated as follow: […]
Selectivity Score or S-score is a quantitative measure of compound selectivity. It is calculated by dividing the number of kinases that compounds bind to by the total number of distinct kinases tested, excluding mutant variants. S(10)=(number of kinases with % Ctrl <10)/(number of kinases tested), S(1)=(number of kinases with % Ctrl<1)/(number of kinases tested).

HL60 = assay: CellTiter-Blue cell-based survival/proliferation assay, HL60 (leukemia); settings: Homo sapiens, HL-60; HL60 cells, 48 h; read-out: Anti-tumoral activity (measured IC50), Leukemia HL60
Experimental: (§1) Compounds of formula (I) were tested against a panel of about 34 human tumor cell lines representing 17 cancer type, namely leukemia (represented by 1 cell line), lymphoma (4 cell lines), myeloma (1 cell line), colorectal (2 cell lines), head and neck (3 cell lines), lung (3 cell lines), melanoma (2 cell lines), pancreas (2 cell lines), prostate (2 cell lines), ovary (2 cell lines) breast (2 cell lines), kidney (2 cell lines), stomach (2 cell lines), liver (2 cell lines), glioblastoma (2 cell lines), osteosarcoma (1 cell line), Ewing Sarcoma (1 cell line).
(§2) CellTiter-Blue cell-based survival/proliferation assay (Promega G8080) was performed on tumor cell lines. A total of 1.10^4 cells/well/50 μl were seeded in a 96-wells plate. Treatment was initiated by addition of a 2× drug solution of 1/10 serial dilutions ranging from 0 to 10 μM. Cells were grown for 48 h at 37° C. and then incubated with 10 μl/well of Promega CellTiter-Bleue reagent for 4 h at 37° C. The amount of resorufin dye formed was quantified by its fluorescence emission at 590 nm using a scanning multiwell spectrophotometer (OPTIMA, BMG labtech, France). A blank well without cells was used as a background control for the spectrophotometer.

OPM2 = assay: CellTiter-Blue cell-based survival/proliferation assay, OPM2 (myeloma); settings: Homo sapiens, OPM-2; OPM2 cells, 48 h; read-out: Anti-tumoral activity (measured IC50), Myeloma OPM2
Experimental: as §1, §2

A498 = assay: CellTiter-Blue cell-based survival/proliferation assay, A498; settings: Homo sapiens, Kidney, 48 h
Experimental: as §1, §2

A549 = assay: CellTiter-Blue cell-based survival/proliferation assay, A549; settings: Homo sapiens, Lung, 48 h
Experimental: as §1, §2

ACHN = assay: CellTiter-Blue cell-based survival/proliferation assay, ACHN; settings: Homo sapiens, Kidney, 48 h
Experimental: as §1, §2

AGS = assay: CellTiter-Blue cell-based survival/proliferation assay, AGS; settings: Homo sapiens, Stomach, 48 h
Experimental: as §1, §2

BT20 = assay: CellTiter-Blue cell-based survival/proliferation assay, BT20; settings: Homo sapiens, BT-20, Breast, 48 h
Experimental: as §1, §2

BXPC3 = assay: CellTiter-Blue cell-based survival/proliferation assay, BXPC3; settings: Homo sapiens, BXPC-3, Pancreas, 48 h
Experimental: as §1, §2

CALU6 = assay: CellTiter-Blue cell-based survival/proliferation assay, CALU6; settings: Homo sapiens, Calu-6, Lung, 48 h
Experimental: as §1, §2

CLS354 = assay: CellTiter-Blue cell-based survival/proliferation assay, CLS354; settings: Homo sapiens, CLS-354; Head & Neck; CLS354_4; 48 h
Experimental: as §1, §2

DLD1 = assay: CellTiter-Blue cell-based survival/proliferation assay, DLD1; settings: Homo sapiens, DLD-1; Colorectal; DLD_1; 48 h
Experimental: as §1, §2

DU145 = assay: CellTiter-Blue cell-based survival/proliferation assay, DU145; settings: Homo sapiens, DU-145, Prostate, 48 h
Experimental: as §1, §2

H1299 = assay: CellTiter-Blue cell-based survival/proliferation assay, H1299; settings: Homo sapiens, NCI-H1299, Lung, 48 h
Experimental: as §1, §2

HCT116 = assay: CellTiter-Blue cell-based survival/proliferation assay, HCT116; settings: Homo sapiens, HCT-116, Colorectal, 48 h
Experimental: as §1, §2

HEP2 = assay: CellTiter-Blue cell-based survival/proliferation assay, HEP2; settings: Homo sapiens, HEp-2, Head & Neck, 48 h
Experimental: as §1, §2

HEPG2 = assay: CellTiter-Blue cell-based survival/proliferation assay, HEPG2; settings: Homo sapiens, Liver, 48 h
Experimental: as §1, §2

HGC27 = assay: CellTiter-Blue cell-based survival/proliferation assay, HGC27; settings: Homo sapiens, HGC-27, Stomach, 48 h
Experimental: as §1, §2

MDAMB231 = assay: CellTiter-Blue cell-based survival/proliferation assay, MDAMB231; settings: Homo sapiens, MDA-MB-231, Breast, 48 h
Experimental: as §1, §2

MESSA = assay: CellTiter-Blue cell-based survival/proliferation assay, MESSA; settings: Homo sapiens, MES-SA, Ovary, 48 h
Experimental: as §1, §2

PANC1 = assay: CellTiter-Blue cell-based survival/proliferation assay, PANC1; settings: Homo sapiens, PANC-1; Pancreas; PANC_1; 48 h
Experimental: as §1, §2

PC3 = assay: CellTiter-Blue cell-based survival/proliferation assay, PC3; settings: Homo sapiens, PC-3, Prostate, 48 h
Experimental: as §1, §2

PLCPRF5 = assay: CellTiter-Blue cell-based survival/proliferation assay, PLCPRF5; settings: Homo sapiens, PLC-PRF-5; Liver; PLC_PRF5; 48 h
Experimental: as §1, §2

SW579 = assay: CellTiter-Blue cell-based survival/proliferation assay, SW579; settings: Homo sapiens, Head & Neck, 48 h
Experimental: as §1, §2

TOV112D = assay: CellTiter-Blue cell-based survival/proliferation assay, TOV112D; settings: Homo sapiens, Ovary, 48 h
Experimental: as §1, §2

## CCOCc1ccc(C)c(Nc2nc(-c3ccc(N4CCNC4=O)cc3)cs2)c1 [Example 003, 1-{4-[2-(5-Ethoxymethyl-(2-methyl-phenylamino))-thiazol-4-yl]-phenyl}-imidazolidin-2-one]
[1]
  interaction with the 456 kinases tested: do not efficiently interact
  S-score, type S1: 0.002
  S-score, type S10: 0.009
  Number of hits/number of kinases, S10: 4/456
  Number of hits/number of kinases, S1: 1/456
  Kinase targets, S10: KIT, KIT V559D,; also recorded: KIT L576P
  Kinase targets, S1: PDGFRB

## CCOCc1ccc(C)c(Nc2ncc(-c3ccc(N4CCNC4=O)cc3)o2)c1 [Example 006, 1-{4-[2-(5-Ethoxymethyl-(2-methyl-phenylamino))-oxazol-5-yl]-phenyl}-imidazolidin-2-one]
[1]
  interaction with the 456 kinases tested: do not efficiently interact
  S-score, type S1: 0.000
  S-score, type S10: 0.000
  Number of hits/number of kinases, S10: 0/456
  Number of hits/number of kinases, S1: 0/456
  Kinase targets, S1: None

## CCOCc1ccc(C)c(Nc2ncc(-c3ccc(-n4cccn4)cc3)o2)c1 [Example 033, (5-Ethoxymethyl-2-methyl-phenyl)-[5-(4-pyrazol-1-yl-phenyl)-oxazol-2-yl]-amine]
[1]
  interaction with the 456 kinases tested: do not efficiently interact
  S-score, type S1: 0.000
  S-score, type S10: 0.002
  Number of hits/number of kinases, S10: 1/456
  Number of hits/number of kinases, S1: 0/456
  Kinase targets, S10: CDKL3

## CCOCc1ccc(C)c(Nc2nc(-c3ccc(-n4cccn4)nc3)cs2)c1 [Example 062, 4-(6-(1H-pyrazol-1-yl)pyridin-3-yl)-N-(5-(ethoxymethyl)-2-methylphenyl)thiazol-2-amine]
HL60
  IC50: 100 to 500 nM
OPM2
  IC50: 100 to 500 nM
A498
  IC50: > 1000 nM
A549
  IC50: > 1000 nM
ACHN
  IC50: > 1000 nM
AGS
  IC50: > 1000 nM
BT20
  IC50: > 1000 nM
BXPC3
  IC50: > 1000 nM
CALU6
  IC50: > 1000 nM
CLS354
  IC50: 500 to 1000 nM
DLD1
  IC50: > 1000 nM
DU145
  IC50: > 1000 nM
H1299
  IC50: > 1000 nM
HCT116
  IC50: > 1000 nM
HEP2
  IC50: 500 to 1000 nM
HEPG2
  IC50: > 1000 nM
HGC27
  IC50: > 1000 nM
MDAMB231
  IC50: > 1000 nM
MESSA
  IC50: > 1000 nM
PANC1
  IC50: > 1000 nM
PC3
  IC50: > 1000 nM
PLCPRF5
  IC50: > 1000 nM
SW579
  IC50: > 1000 nM
TOV112D
  IC50: ≤ 100 nM
